Earlier results on one substance are cited in US20040209811A1, “Oral prohylactic agent against viral infection” (Chuang-Chun Chiueh, priority 2003, published 2004).

In one data set the test system is enterovirus. Conditions: full prevention of infection; protected cells from viral invasion and pathological changes.
The next data set has as its system cells. Particulars: at >0.3 μM concentration.

With phycocyanin, the “concentration found to prevent the infection of influenza viruses” value with influenza viruses was more than 0.04 µM. The “concentration that could fully prevent enteroviral infection” value in the data set on enterovirus was more than 0.3 µM. Moreover, in the data set on cells, the toxicity to cells entry was “non-toxic to cells”.
